We go through 37 molecules from US20260306640A1, “TECHNOLOGIES TARGETING CELL STATES” (Auron Therapeutics, Inc., priority 2023, published 2026).

The target of one assay is KAT2A (Homo sapiens, UniProt Q92830). Put plainly: KAT2A degradation, Western Blot (Jess), NCI-H1048 cells. The arrangement: degrader, Western blot (Jess). The conditions noted are these: NCI-H1048 cells, KAT2A, 24 h, Western Blot, vs DMSO; read-out: KAT2A NCI-H1048 DC50. The format is cell-based. In a few lines:
(§1)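 NCI-H1048 cells grown in HITES medium with 5% FBS were treated with compounds for 24 h at 37° C. Lysates were run by capillary Western (Jess) with KAT2A or KAT2B antibodies and chemiluminescent detection. DC50 derived from percent protein reduction versus DMSO control.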

Another assay has as its target KAT2B (Homo sapiens, UniProt Q92831). As to the kind of experiment: KAT2B degradation, Western Blot (Jess), NCI-H1048 cells. On the set-up: degrader, Western blot (Jess). The conditions noted are these: NCI-H1048 cells, KAT2B, 24 h, Western Blot, vs DMSO; read-out: KAT2B NCI-H1048 DC50. The format is cell-based. In short, it runs like this: as §1
A general note: In western blotting, separated proteins are transferred to a membrane and probed.

Where only a bound is given, the exact number is not on record here.

KAT2B, sequence (Q92831 whole entry): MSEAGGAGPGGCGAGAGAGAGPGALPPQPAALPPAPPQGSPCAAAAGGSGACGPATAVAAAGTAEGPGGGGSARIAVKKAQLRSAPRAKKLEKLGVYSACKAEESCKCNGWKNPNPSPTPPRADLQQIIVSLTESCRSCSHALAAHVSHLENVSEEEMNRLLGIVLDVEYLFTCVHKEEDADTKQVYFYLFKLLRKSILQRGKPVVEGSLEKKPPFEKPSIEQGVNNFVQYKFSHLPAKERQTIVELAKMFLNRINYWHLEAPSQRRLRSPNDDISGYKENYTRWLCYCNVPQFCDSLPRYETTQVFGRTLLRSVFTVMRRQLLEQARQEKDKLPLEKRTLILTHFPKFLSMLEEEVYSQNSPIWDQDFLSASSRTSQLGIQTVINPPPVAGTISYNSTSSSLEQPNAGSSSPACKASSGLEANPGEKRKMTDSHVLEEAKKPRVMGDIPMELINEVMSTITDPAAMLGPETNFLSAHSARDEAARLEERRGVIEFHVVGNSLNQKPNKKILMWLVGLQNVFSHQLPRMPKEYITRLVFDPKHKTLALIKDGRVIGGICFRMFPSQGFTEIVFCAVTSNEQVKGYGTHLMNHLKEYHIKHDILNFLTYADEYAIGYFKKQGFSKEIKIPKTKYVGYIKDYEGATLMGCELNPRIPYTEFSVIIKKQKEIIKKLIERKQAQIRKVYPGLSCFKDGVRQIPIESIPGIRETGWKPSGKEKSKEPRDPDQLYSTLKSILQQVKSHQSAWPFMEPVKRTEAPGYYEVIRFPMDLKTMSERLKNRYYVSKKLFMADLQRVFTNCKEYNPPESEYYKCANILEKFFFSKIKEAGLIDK
KAT2A, sequence (Q92830 whole entry): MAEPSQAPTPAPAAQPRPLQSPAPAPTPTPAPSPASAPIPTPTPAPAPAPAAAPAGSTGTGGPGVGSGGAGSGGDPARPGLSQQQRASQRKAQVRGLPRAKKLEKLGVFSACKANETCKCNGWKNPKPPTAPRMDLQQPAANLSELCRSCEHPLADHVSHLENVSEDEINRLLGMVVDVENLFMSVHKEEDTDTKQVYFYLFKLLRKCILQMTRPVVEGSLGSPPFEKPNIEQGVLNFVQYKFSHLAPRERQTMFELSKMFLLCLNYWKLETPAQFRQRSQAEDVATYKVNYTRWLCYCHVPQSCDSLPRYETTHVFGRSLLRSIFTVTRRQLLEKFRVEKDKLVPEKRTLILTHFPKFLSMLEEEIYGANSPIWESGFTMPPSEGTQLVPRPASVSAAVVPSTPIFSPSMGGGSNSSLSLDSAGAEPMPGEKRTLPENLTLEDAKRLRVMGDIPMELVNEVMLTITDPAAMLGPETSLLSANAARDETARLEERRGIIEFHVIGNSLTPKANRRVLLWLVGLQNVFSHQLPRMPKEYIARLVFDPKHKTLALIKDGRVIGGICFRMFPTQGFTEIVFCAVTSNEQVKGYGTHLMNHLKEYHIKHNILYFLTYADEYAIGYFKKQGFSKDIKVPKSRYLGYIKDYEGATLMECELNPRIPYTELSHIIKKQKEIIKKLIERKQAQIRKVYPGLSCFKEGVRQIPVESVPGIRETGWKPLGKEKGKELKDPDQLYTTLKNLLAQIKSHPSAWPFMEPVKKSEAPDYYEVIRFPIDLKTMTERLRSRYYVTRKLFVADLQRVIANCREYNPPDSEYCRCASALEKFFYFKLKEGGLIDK

As for `C[C@H](Nc1nn(C)c(=O)c2cccnc12)[C@H](c1ccc(C(=O)N2CCC3(CC2)CCN(c2ccc(C4CCC(=O)NC4=O)cc2)CC3)cc1)N(C)C` (stereo partly drawn) [Compound 429, 3-(4-(9-(4-((1S,2S)-1-(dimethylamino)-2-((6-methyl-5-oxo-5,6-dihydropyrido[2,3-d]pyridazin-8-yl)amino)propyl)benzoyl)-3,9-diazaspiro[5.5]undecan-3-yl)phenyl)piperidine-2,6-dione], the DC50 (usually the concentration giving 50% degradation) is below 1 nM at KAT2A and 1 to 30 nM on KAT2B.
The matching figures for `Cc1cc(N2CCC3(CCN(C(=O)c4ccc([C@H]5C[C@@H](Nc6cnn(C)c(=O)c6Cl)CN(C)C5)cc4)CC3)CC2)cc(F)c1C1CCC(=O)NC1=O` (some centres unmarked) [Compound 288]: below 1 nM and below 1 nM.
On the same counts, the results for `CN1C[C@H](Nc2cnn(C)c(=O)c2Br)C[C@H](c2ccc(CN3CCN(c4cccc5c4oc(=O)n5C4CCC(=O)NC4=O)CC3)cc2)C1` (some centres unmarked) [Compound 196] are below 1 nM and below 1 nM.
On the same counts, the results for `Cc1cc(C2CCC(=O)NC2=O)cnc1N1CCC2(CCN(C(=O)c3ccc([C@H]4C[C@@H](Nc5cnn(C)c(=O)c5Cl)CN(C)C4)cc3)CC2)CC1` (some centres unmarked) [Compound 267] are below 1 nM and below 1 nM.
Turning to `CN1C[C@H](Nc2cnn(C)c(=O)c2Cl)C[C@H](c2ccc(C(=O)N3CCC4(CC3)CCN(c3ccc5nnn(C6CCC(=O)NC6=O)c5c3)CC4)cc2)C1` (some centres unmarked) [Compound 214], the results for the DC50 at KAT2A and at KAT2B were 1 to 30 nM and above 30 nM, respectively.
For `Cc1c(N[C@@H]2C[C@H](c3ccc(C(=O)N4CCC5(CC4)CCN(c4ccc(C6CCC(=O)NC6=O)nc4)CC5)cc3)CN(C)C2)cnn(C)c1=O` (some centres unmarked) [Compound 241], the DC50 at KAT2A was below 1 nM; at KAT2B it was 1 to 30 nM.
On to `CN1C[C@H](Nc2cnn(C)c(=O)c2Br)C[C@H](c2ccc(C(=O)N3CCC(Cc4ccc(C5CCC(=O)NC5=O)c(F)c4)CC3)cc2)C1` (some centres unmarked) [Compound 328], for which the DC50 on KAT2A and at KAT2B was below 1 nM each time.
For the molecule `CN1C[C@H](Nc2cnn(C)c(=O)c2Cl)C[C@H](c2ccc(CN3CCN(c4ccnc(C5CCC(=O)NC5=O)c4)CC3)cc2)C1` (some centres unmarked) [Compound 351], the DC50 on KAT2A was 1 to 30 nM; at KAT2B, above 30 nM.
`Cc1c(N[C@@H]2C[C@H](c3ccc(C(=O)N4CCC5(CC4)CCN(c4cc(C(F)(F)F)c(C6CCC(=O)NC6=O)cn4)CC5)cc3)CN(C)C2)cnn(C)c1=O` (some centres unmarked) [Compound 230]: the DC50 at KAT2A and at KAT2B was 1 to 30 nM each time.
Turning to `COc1cc(N2CCC3(CCN(C(=O)c4ccc([C@H]5C[C@@H](Nc6cnn(C)c(=O)c6Br)CN(C)C5)cc4)CC3)CC2)ccc1C1CCC(=O)NC1=O` (some centres unmarked) [Compound 263], the DC50 on KAT2A and at KAT2B was below 1 nM each time.
For the molecule `CN1C[C@H](Nc2cnn(C)c(=O)c2Br)C[C@H](c2ccc(C(=O)N3CC(c4ccc(C5CCC(=O)NC5=O)cc4)C3)cc2)C1` (some centres unmarked) [Compound 189], the DC50 was 1 to 30 nM at KAT2A and above 30 nM at KAT2B.
In the case of `Cc1c(N[C@@H]2C[C@H](c3ccc(CN4CCN(c5cncc(C6CCC(=O)NC6=O)c5)CC4)cc3)CN(C)C2)cnn(C)c1=O` (some centres unmarked) [Compound 346], the DC50 on KAT2A and at KAT2B was above 30 nM in each case.
Consider `CN1C[C@H](Nc2cnn(C)c(=O)c2Cl)C[C@H](c2ccc(C(=O)N3CCC4(CC3)CCN(c3ccc(C5CCC(=O)NC5=O)c(F)c3F)CC4)cc2)C1` (some centres unmarked) [Compound 251], for which the DC50 is below 1 nM at KAT2A and 1 to 30 nM on KAT2B.
The matching figures for `CN1C[C@H](Nc2cnn(C)c(=O)c2Cl)C[C@H](c2ccc(CN3CCN(c4cc5c(cc4F)C(=O)N(C4CCC(=O)NC4=O)C5=O)CC3)cc2)C1` (some centres unmarked) [Compound 305]: 1 to 30 nM and above 30 nM.
On the same counts, the results for `CN1C[C@H](Nc2cnn(C)c(=O)c2Cl)C[C@H](c2ccc(C(=O)N3CCC4(CC3)CCN(c3ccc(C(=O)NC5CCC(=O)NC5=O)nc3)CC4)cc2)C1` (some centres unmarked) [Compound 403] are below 1 nM and 1 to 30 nM.
Regarding `Cc1c(N[C@@H]2C[C@H](c3ccc(C(=O)N4CCC5(CC4)CCN(c4ccc(C6CCC(=O)NC6=O)c(F)c4)CC5)cc3)CN(C)C2)cnn(C)c1=O` (some centres unmarked) [Compound 316], the DC50 at KAT2A and on KAT2B was below 1 nM in each case.
As for `CN1C[C@H](Nc2cnn(C)c(=O)c2Br)C[C@H](c2ccc(C(=O)N3CCC4(CC3)CCN(c3ccc(C5CCC(=O)NC5=O)cc3)CC4)cc2)C1` (single isomer, unassigned) [Compound 239], the DC50 on KAT2A and at KAT2B was below 1 nM throughout.
As for `CN1C[C@H](Nc2cnn(C)c(=O)c2Br)C[C@H](c2ccc(CN3CCN(c4cccc(OC5CCC(=O)NC5=O)c4)CC3)cc2)C1` (stereo partly drawn) [Compound 435, 3-(3-(4-(4-((3R,5R)-5-((5-bromo-1-methyl-6-oxo-1,6-dihydropyridazin-4-yl)amino)-1-methylpiperidin-3-yl)benzyl)piperazin-1-yl)phenoxy)piperidine-2,6-dione], the half-maximal degradation concentration (DC50) at KAT2A and on KAT2B was above 30 nM in each case.
Turning to `Cc1c(N[C@@H]2C[C@H](c3ccc(CN4CCN(c5ccc(F)c(C6CCC(=O)NC6=O)c5)CC4)cc3)CN(C)C2)cnn(C)c1=O` (some centres unmarked) [Compound 342], the DC50 on KAT2A is below 1 nM; at KAT2B it was 1 to 30 nM.
On to `COc1cc(C2CCC3(CC2)CCN(C(=O)c2ccc([C@H]4C[C@@H](Nc5cnn(C)c(=O)c5Cl)CN(C)C4)cc2)CC3)ccc1C1CCC(=O)NC1=O` (some centres unmarked) [Compound 319], for which the half-maximal degradation concentration (DC50) is below 1 nM on KAT2A and 1 to 30 nM on KAT2B.
On the same counts, the results for `Cc1ncsc1-c1ccc(CNC(=O)[C@@H]2C[C@@H](O)CN2C(=O)[C@@H](NC(=O)CC2CCN(C(=O)c3ccc([C@H]4C[C@@H](Nc5cnn(C)c(=O)c5Br)CN(C)C4)cc3)CC2)C(C)(C)C)cc1` [Compound 411] are above 30 nM and above 30 nM.
Take `Cc1c(N[C@@H]2C[C@H](c3ccc(CN4CCC(c5cccc(C6CCC(=O)NC6=O)c5)C(F)(F)C4)cc3)CN(C)C2)cnn(C)c1=O` (some centres unmarked) [Compound 387]: the DC50 is below 1 nM on KAT2A and above 30 nM at KAT2B.
Consider `Cc1cc(N2CC(N3CCN(C(=O)c4ccc([C@H]5C[C@@H](Nc6cnn(C)c(=O)c6Br)CN(C)C5)cc4)CC3)C2)ccc1C1CCC(=O)NC1=O` (some centres unmarked) [Compound 307], for which the values for the DC50 on KAT2A and on KAT2B were below 1 nM and 1 to 30 nM, respectively.
As for `CN1C[C@H](Nc2cnn(C)c(=O)c2Br)C[C@H](c2ccc(C(=O)N3CCC4(CC3)CCN(c3ccc5c(C6CCC(=O)NC6=O)cncc5c3)CC4)cc2)C1` (some centres unmarked) [Compound 297], the DC50 at KAT2A and at KAT2B was below 1 nM in each case.
For `Cc1c(C2CCC(=O)NC2=O)ccc(N2CCC3(CCN(C(=O)c4ccc([C@H]5C[C@@H](Nc6cnn(C)c(=O)c6C)CN(C)C5)cc4)CC3)CC2)c1F` (some centres unmarked) [Compound 256], the DC50 was below 1 nM at KAT2A and 1 to 30 nM at KAT2B.
Regarding `CN1C[C@H](Nc2cnn(C)c(=O)c2Br)C[C@H](c2ccc(CN3CCN(c4cc5c(cc4F)C(=O)N(C4CCC(=O)NC4=O)C5=O)CC3)cc2)C1` (some centres unmarked) [Compound 304], the DC50 at KAT2A is below 1 nM; on KAT2B it was 1 to 30 nM.
`CN1C[C@H](Nc2cnn(C)c(=O)c2Cl)C[C@H](c2ccc(C(=O)N3CCC4(CC3)CCN(c3cccc5c3C(=O)N(C3CCC(=O)NC3=O)C5=O)CC4)cc2)C1` (some centres unmarked) [Compound 302]: the DC50 on KAT2A and on KAT2B was 1 to 30 nM each time.
On to `CN1C[C@H](Nc2cnn(C)c(=O)c2Br)C[C@H](c2ccc(C(=O)N3CCC4(CC3)CCN(c3ccc5c(C6CCC(=O)NC6=O)nccc5c3)CC4)cc2)C1` (some centres unmarked) [Compound 294], for which the DC50 on KAT2A and on KAT2B was below 1 nM each time.
As for `CN1C[C@H](Nc2cnn(C)c(=O)c2Br)C[C@H](c2ccc(C(=O)N3CCC4(CC3)CCN(c3ccc(NC5CCC(=O)NC5=O)c(F)c3)CC4)cc2)C1` (some centres unmarked) [Compound 373], the results for the 50% degradation concentration (DC50) on KAT2A and at KAT2B were below 1 nM and 1 to 30 nM, respectively.
The matching figures for `CN1C[C@H](Nc2cnn(C)c(=O)c2Cl)C[C@H](c2ccc(CN3CCN(c4ccc5c(C6CCC(=O)NC6=O)nccc5c4)CC3)cc2)C1` (some centres unmarked) [Compound 383]: below 1 nM and 1 to 30 nM.
The matching figures for `CN1C[C@H](Nc2cnn(C)c(=O)c2Cl)C[C@H](c2ccc(C(=O)N3CCC4(CC3)CCN(c3cnn(C5CCC(=O)NC5=O)c3)CC4)cc2)C1` (some centres unmarked) [Compound 207]: below 1 nM and above 30 nM.
On to `CN1C[C@H](Nc2cnn(C)c(=O)c2Cl)C[C@H](c2ccc(C(=O)N3CCC(C#Cc4ccc(C5CCC(=O)NC5=O)cc4)CC3)cc2)C1` (some centres unmarked) [Compound 332], for which the DC50 on KAT2A was below 1 nM; at KAT2B it was above 30 nM.
On the same counts, the results for `Cc1cc(C2CCC(=O)NC2=O)c(F)cc1N1CCC2(CCN(C(=O)c3ccc([C@H]4C[C@@H](Nc5cnn(C)c(=O)c5Cl)CN(C)C4)cc3)CC2)CC1` (some centres unmarked) [Compound 218] are below 1 nM and 1 to 30 nM.
On the same counts, the results for `CN1C[C@H](Nc2cnn(C)c(=O)c2Br)C[C@H](c2ccc(C(=O)N3CCC4(CC3)CCN(c3ccc(C5CCC(=O)NC5=O)c(C(F)(F)F)c3)CC4)cc2)C1` (some centres unmarked) [Compound 221] are above 30 nM and above 30 nM.
On the same counts, the results for `Cc1cc(N2CCC3(CCN(C(=O)c4ccc([C@H]5C[C@@H](Nc6c(F)nn(C)c(=O)c6Br)CN(C)C5)cc4)CC3)CC2)ccc1C1CCC(=O)NC1=O` (some centres unmarked) [Compound 213] are below 1 nM and 1 to 30 nM.
As for `CN1C[C@H](Nc2cnn(C)c(=O)c2Br)C[C@H](c2ccc(CN3CCC(c4cccc(C5CCC(=O)NC5=O)c4)C(F)(F)C3)cc2)C1` (some centres unmarked) [Compound 386], the DC50 on KAT2A was 1 to 30 nM; at KAT2B it was above 30 nM.
On the same counts, the results for `CN1C[C@H](Nc2cnn(C)c(=O)c2Br)C[C@H](c2ccc(CN3CCN(c4ccnc(C5CCC(=O)NC5=O)c4)CC3)cc2)C1` (some centres unmarked) [Compound 350] are 1 to 30 nM and above 30 nM.
